Reference: patent EP4803094A2, “GLP-1/GIP DUAL, GLP-1/GCG DUAL AND GLP-1/GIP/GCG TRIPLE RECEPTOR AGONISTS” (Sun Pharmaceutical Industries Limited, priority 2023, dated 2024)
Marks after values point to notes of the source that are not given here.

T1: GIPR (UniProt P48546 22-466, limits assumed)
T1 sequence (looked up): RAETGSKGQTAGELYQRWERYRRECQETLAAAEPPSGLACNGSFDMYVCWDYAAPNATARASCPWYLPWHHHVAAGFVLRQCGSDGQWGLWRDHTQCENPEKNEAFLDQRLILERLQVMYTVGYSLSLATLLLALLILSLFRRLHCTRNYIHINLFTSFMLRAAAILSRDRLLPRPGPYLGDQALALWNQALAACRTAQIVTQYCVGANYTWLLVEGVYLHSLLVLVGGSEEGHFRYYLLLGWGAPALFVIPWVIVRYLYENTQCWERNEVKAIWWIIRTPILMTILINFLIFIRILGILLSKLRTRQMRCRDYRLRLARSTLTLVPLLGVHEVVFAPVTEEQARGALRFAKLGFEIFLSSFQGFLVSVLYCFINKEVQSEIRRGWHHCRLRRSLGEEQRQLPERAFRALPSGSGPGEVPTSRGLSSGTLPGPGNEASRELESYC

B1: Compound 12 (peptide)
peptide: YXQGTFTSDYSIXLDKXAQXAFIEYLLEGGPSSGAPPPS
modifications: Aib at 2; αMethyl-Leu at 13; Lys 17 ε-amino acylated with Moiety A; Aib at 20; C-terminal amide (Rink amide resin)
B2: Compound 17 (peptide)
peptide: B1 peptide
modifications: Aib at 2; norvaline at 13; Lys 17 ε-amino acylated with Moiety B; Aib at 20; C-terminal amide
B3: Compound 18 (peptide)
peptide: B1 peptide
modifications: not fully specified; Aib at 2; norvaline at 13; Lys 17 ε-amino acylated with Moiety G; Aib at 20; C-terminal amide

How the values were obtained:
[1] = tested on: Rats; assay: Oral Glucose Tolerance Test (OGTT) in rats, single injection (blood glucose AUC, body weight, food consumption); type: in vivo; settings: 30 nM/kg s.c., mean (n=4); for Body weight change (%): 24 hr
[2] = tested on: Rats; assay: as above; type: in vivo; settings: for Food Consumption (g) / Body weight change (%): 30 nM/kg s.c.; for Food Consumption (g): 0-12 hr; for Food Consumption (g) / Body weight change (%) / Blood Glucose AUC(0-120min) Mean: mean (n=4); for Blood Glucose AUC(0-120min) Mean: OGTT 2 g/kg glucose orally, 24 hr post subcutaneous injection of 30 nM/kg; for % Change in Blood glucose AUC(0-120min) vs placebo control: OGTT 24 hr post subcutaneous injection of 30 nM/kg
Experimental: Animals were divided into 6 groups (n=4/group): a placebo control group, Compound 17, (30 nM/kg), Compound 18 (30 nM/kg), Compound 19 (30 nM/kg), Compound 20 (30 nM/kg), and Retatrutide (30 nM/kg). Animals were fasted for 12 hours before initiation of OGTT. After 24 hours of subcutaneous injection of tests or Retatrutide, blood glucose was measured with blood glucometer (time 0 measurement). All the animals were given 2 g/kg of glucose solution orally. Blood glucose was measured at 10, 20, 40, 60, 90, and 120 min following glucose challenge. Body weight and food consumption were recorded at 12 hr, 48 hr and 72 hr.

[3] = target: T1, GIPR; assay: cell-based or functional assay
[4] = target: GCGR (UniProt P47871 26-477, limits assumed); assay: cell-based or functional assay
Sequence of GCGR (P47871 26-477 limits assumed): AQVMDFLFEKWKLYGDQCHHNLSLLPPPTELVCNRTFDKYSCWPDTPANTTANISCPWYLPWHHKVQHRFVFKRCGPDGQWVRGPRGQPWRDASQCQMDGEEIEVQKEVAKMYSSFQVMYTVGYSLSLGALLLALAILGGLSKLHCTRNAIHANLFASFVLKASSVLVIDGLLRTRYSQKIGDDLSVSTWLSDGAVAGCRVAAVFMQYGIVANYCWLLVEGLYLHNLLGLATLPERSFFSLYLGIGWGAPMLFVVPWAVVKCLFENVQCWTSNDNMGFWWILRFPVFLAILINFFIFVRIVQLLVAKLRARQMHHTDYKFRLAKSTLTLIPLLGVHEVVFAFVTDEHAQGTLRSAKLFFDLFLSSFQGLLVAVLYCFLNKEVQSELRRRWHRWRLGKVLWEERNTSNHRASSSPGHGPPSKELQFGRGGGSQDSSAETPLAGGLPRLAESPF

[5] = target: GLP-1R (UniProt P43220 24-463, limits assumed); assay: cell-based or functional assay

Molecule	Food Consumption (g) ([1]; 24-48 hr)	Food Consumption (g) ([1]; 24-72 hr)	Body weight change (%) [1]	Food Consumption (g) [2]	Body weight change (%) ([2]; 48 hr)	Body weight change (%) ([2]; 72 hr)	Blood Glucose AUC(0-120min) Mean [2]	% Change in Blood glucose AUC(0-120min) vs placebo control [2]	EC50 value, cellular cAMP assay (Hit Hunter cAMP) [3]	EC50 value, cellular cAMP assay (Hit Hunter cAMP) [4]	EC50 value, cellular cAMP assay (Hit Hunter cAMP) [5]
CCC[C@H](NC(=O)[C@@H](NC(=O)[C@H](CO)NC(=O)[C@H](Cc1ccc(O)cc1)NC(=O)[C@H](CC(=O)O)NC(=O)[C@H](CO)NC(=O)[C@@H](NC(=O)[C@H](Cc1ccccc1)NC(=O)[C@@H](NC(=O)CNC(=O)[C@H](CCC(N)=O)NC(=O)C(C)(C)NC(=O)[C@@H](N)Cc1ccc(O)cc1)[C@@H](C)O)[C@@H](C)O)[C@@H](C)CC)C(=O)N[C@@H](CC(C)C)C(=O)N[C@@H](CC(=O)O)C(=O)N[C@@H](CCCCN)C(=O)N[C@@H](CCCCNC(=O)COCCOCCNC(=O)C(C)(C)NC(=O)CC[C@H](NC(=O)CCCCCCCCCCCCCCCCCCC(=O)O)C(=O)O)C(=O)N[C@@H](C)C(=O)N[C@@H](CCC(N)=O)C(=O)NC(C)(C)C(=O)N[C@@H](C)C(=O)N[C@@H](Cc1ccccc1)C(=O)N[C@H](C(=O)N[C@@H](CCC(=O)O)C(=O)N[C@@H](Cc1ccc(O)cc1)C(=O)N[C@@H](CC(C)C)C(=O)N[C@@H](CC(C)C)C(=O)N[C@@H](CCC(=O)O)C(=O)NCC(=O)NCC(=O)N1CCC[C@H]1C(=O)N[C@@H](CO)C(=O)N[C@@H](CO)C(=O)NCC(=O)N[C@@H](C)C(=O)N1CCC[C@H]1C(=O)N1CCC[C@H]1C(=O)N1CCC[C@H]1C(=O)N[C@@H](CO)C(N)=O)[C@@H](C)CC [Compound 17]	15.8*** g	31.3*** g	-6.8*** %	1.4*** g	-5.0*** %	-3.3*** %	4771.3***	-50.67%	–	–	–
CCC[C@H](NC(=O)[C@@H](NC(=O)[C@H](CO)NC(=O)[C@H](Cc1ccc(O)cc1)NC(=O)[C@H](CC(=O)O)NC(=O)[C@H](CO)NC(=O)[C@@H](NC(=O)[C@H](Cc1ccccc1)NC(=O)[C@@H](NC(=O)CNC(=O)[C@H](CCC(N)=O)NC(=O)C(C)(C)NC(=O)[C@@H](N)Cc1ccc(O)cc1)[C@@H](C)O)[C@@H](C)O)[C@@H](C)CC)C(=O)N[C@@H](CC(C)C)C(=O)N[C@@H](CC(=O)O)C(=O)N[C@@H](CCCCN)C(=O)N[C@@H](CCCCNC(=O)COCCOCCNC(=O)COCCOCCNC(=O)CC[C@H](NC(=O)CCCCCCCCCCCCCCCCCCC(=O)O)C(=O)O)C(=O)N[C@@H](C)C(=O)N[C@@H](CCC(N)=O)C(=O)NC(C)(C)C(=O)N[C@@H](C)C(=O)N[C@@H](Cc1ccccc1)C(=O)N[C@H](C(=O)N[C@@H](CCC(=O)O)C(=O)N[C@@H](Cc1ccc(O)cc1)C(=O)N[C@@H](CC(C)C)C(=O)N[C@@H](CC(C)C)C(=O)N[C@@H](CCC(=O)O)C(=O)NCC(=O)NCC(=O)N1CCC[C@H]1C(=O)N[C@@H](CO)C(=O)N[C@@H](CO)C(=O)NCC(=O)N[C@@H](C)C(=O)N1CCC[C@H]1C(=O)N1CCC[C@H]1C(=O)N1CCC[C@H]1C(=O)N[C@@H](CO)C(N)=O)[C@@H](C)CC [Compound 18]	5.8*** g	16.8*** g	-6.5*** %	3.0*** g	-4.6*** %	-2.6*** %	4176.3***	-56.82%	–	–	–
CC[C@H](C)[C@H](NC(=O)[C@H](Cc1ccccc1)NC(=O)[C@H](C)NC(=O)C(C)(C)NC(=O)[C@H](CCC(N)=O)NC(=O)[C@H](C)NC(=O)[C@H](CCCCNC(=O)COCCOCCNC(=O)NCCCCNC(=O)CC[C@H](NC(=O)CCCCCCCCCCCCCCCCC(=O)O)C(=O)O)NC(=O)[C@H](CCCCN)NC(=O)[C@H](CC(=O)O)NC(=O)[C@H](CC(C)C)NC(=O)[C@](C)(CC(C)C)NC(=O)[C@@H](NC(=O)[C@H](CO)NC(=O)[C@H](Cc1ccc(O)cc1)NC(=O)[C@H](CC(=O)O)NC(=O)[C@H](CO)NC(=O)[C@@H](NC(=O)[C@H](Cc1ccccc1)NC(=O)[C@@H](NC(=O)CNC(=O)[C@H](CCC(N)=O)NC(=O)C(C)(C)NC(=O)[C@@H](N)Cc1ccc(O)cc1)[C@@H](C)O)[C@@H](C)O)[C@@H](C)CC)C(=O)N[C@@H](CCC(=O)O)C(=O)N[C@@H](Cc1ccc(O)cc1)C(=O)N[C@@H](CC(C)C)C(=O)N[C@@H](CC(C)C)C(=O)N[C@@H](CCC(=O)O)C(=O)NCC(=O)NCC(=O)N1CCC[C@H]1C(=O)N[C@@H](CO)C(=O)N[C@@H](CO)C(=O)NCC(=O)N[C@@H](C)C(=O)N1CCC[C@H]1C(=O)N1CCC[C@H]1C(=O)N1CCC[C@H]1C(=O)N[C@@H](CO)C(N)=O [Compound 19]	7.2*** g	17.0*** g	-6.3*** %	1.3*** g	-4.9*** %	-2.6*** %	3848.8***	-60.20%	–	–	–
CC[C@H](C)[C@H](NC(=O)[C@H](Cc1ccccc1)NC(=O)[C@H](C)NC(=O)C(C)(C)NC(=O)[C@H](CCC(N)=O)NC(=O)[C@H](C)NC(=O)[C@H](CCCCNC(=O)COCCOCCNC(=O)NCCCCNC(=O)CC[C@H](NC(=O)CCCCCCCCCCCCCCCCCCC(=O)O)C(=O)O)NC(=O)[C@H](CCCCN)NC(=O)[C@H](CC(=O)O)NC(=O)[C@H](CC(C)C)NC(=O)[C@](C)(CC(C)C)NC(=O)[C@@H](NC(=O)[C@H](CO)NC(=O)[C@H](Cc1ccc(O)cc1)NC(=O)[C@H](CC(=O)O)NC(=O)[C@H](CO)NC(=O)[C@@H](NC(=O)[C@H](Cc1ccccc1)NC(=O)[C@@H](NC(=O)CNC(=O)[C@H](CCC(N)=O)NC(=O)C(C)(C)NC(=O)[C@@H](N)Cc1ccc(O)cc1)[C@@H](C)O)[C@@H](C)O)[C@@H](C)CC)C(=O)N[C@@H](CCC(=O)O)C(=O)N[C@@H](Cc1ccc(O)cc1)C(=O)N[C@@H](CC(C)C)C(=O)N[C@@H](CC(C)C)C(=O)N[C@@H](CCC(=O)O)C(=O)NCC(=O)NCC(=O)N1CCC[C@H]1C(=O)N[C@@H](CO)C(=O)N[C@@H](CO)C(=O)NCC(=O)N[C@@H](C)C(=O)N1CCC[C@H]1C(=O)N1CCC[C@H]1C(=O)N1CCC[C@H]1C(=O)N[C@@H](CO)C(N)=O [Compound 20]	12.8*** g	33.1*** g	-6.0*** %	1.6*** g	-4.6*** %	-2.7*** %	4472.5***	-53.76%	–	–	–
CC[C@H](C)[C@H](NC(=O)[C@H](Cc1ccccc1)NC(=O)[C@H](C)NC(=O)C(C)(C)NC(=O)[C@H](CCC(N)=O)NC(=O)[C@H](C)NC(=O)[C@H](CCCCNC(=O)COCCOCCNC(=O)CC[C@H](NC(=O)CCCCCCCCCCCCCCCCCCC(=O)O)C(=O)O)NC(=O)[C@H](CCCCN)NC(=O)[C@H](CC(=O)O)NC(=O)[C@H](CC(C)C)NC(=O)[C@](C)(CC(C)C)NC(=O)[C@@H](NC(=O)[C@H](CO)NC(=O)[C@H](Cc1ccc(O)cc1)NC(=O)[C@H](CC(=O)O)NC(=O)[C@H](CO)NC(=O)[C@@H](NC(=O)[C@H](Cc1ccccc1)NC(=O)[C@@H](NC(=O)CNC(=O)[C@H](CCC(N)=O)NC(=O)C(C)(C)NC(=O)[C@@H](N)Cc1ccc(O)cc1)[C@@H](C)O)[C@@H](C)O)[C@@H](C)CC)C(=O)N[C@@H](CCC(=O)O)C(=O)N[C@@H](Cc1ccc(O)cc1)C(=O)N[C@@H](CC(C)C)C(=O)N[C@@H](CC(C)C)C(=O)N[C@@H](CCC(=O)O)C(=O)NCC(=O)NCC(=O)N1CCC[C@H]1C(=O)N[C@@H](CO)C(=O)N[C@@H](CO)C(=O)NCC(=O)N[C@@H](C)C(=O)N1CCC[C@H]1C(=O)N1CCC[C@H]1C(=O)N1CCC[C@H]1C(=O)N[C@@H](CO)C(N)=O [Retatrutide, reference compound]	8.6*** g	23.8*** g	-6.0*** %	0.7*** g	-4.5*** %	-2.5*** %	3792.5***	-60.79%	–	–	–
B1	–	–	–	–	–	–	–	–	12 nM	6.99 nM	12 nM
B2	–	–	–	–	–	–	–	–	0.0115 nM	0.0133 nM	0.0087 nM
B3	–	–	–	–	–	–	–	–	0.0227 nM	0.193 nM	0.0173 nM
